Experiments:
[1] = target: T1, MCT1 (Homo sapiens, UniProt P53985); assay: functional 3-BP cell viability assay (MCT1 transport inhibition); format: cell-based; settings: MCT1-expressing A-549 cells, 50 μM 3-BP, 72 h; read-out: MCT1 transport inhibition IC50 ± SEM
T1 construct: MCT1-expressing A-549 cells[14],[15] were exposed to the MCT1 substrate 3-BP, which becomes influxed by MCT1; endogenous in cells; host or cells: A-549 lung cancer cells (from NCCS, Pune)
T1 sequence (P53985 1-500): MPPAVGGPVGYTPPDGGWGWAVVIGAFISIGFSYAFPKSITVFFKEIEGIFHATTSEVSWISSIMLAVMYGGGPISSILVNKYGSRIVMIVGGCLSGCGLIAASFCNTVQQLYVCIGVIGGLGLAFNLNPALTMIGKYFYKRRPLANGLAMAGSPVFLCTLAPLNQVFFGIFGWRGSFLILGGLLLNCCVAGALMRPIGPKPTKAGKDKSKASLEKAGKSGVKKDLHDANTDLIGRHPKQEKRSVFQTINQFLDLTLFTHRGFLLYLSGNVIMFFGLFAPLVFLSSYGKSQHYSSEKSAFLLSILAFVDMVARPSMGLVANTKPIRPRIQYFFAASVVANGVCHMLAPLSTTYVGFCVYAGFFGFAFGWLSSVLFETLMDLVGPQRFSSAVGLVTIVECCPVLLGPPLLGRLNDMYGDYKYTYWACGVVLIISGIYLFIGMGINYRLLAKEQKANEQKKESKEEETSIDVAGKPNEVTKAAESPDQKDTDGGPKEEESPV
T1 sequence (P35613 140-385 partner limits assumed): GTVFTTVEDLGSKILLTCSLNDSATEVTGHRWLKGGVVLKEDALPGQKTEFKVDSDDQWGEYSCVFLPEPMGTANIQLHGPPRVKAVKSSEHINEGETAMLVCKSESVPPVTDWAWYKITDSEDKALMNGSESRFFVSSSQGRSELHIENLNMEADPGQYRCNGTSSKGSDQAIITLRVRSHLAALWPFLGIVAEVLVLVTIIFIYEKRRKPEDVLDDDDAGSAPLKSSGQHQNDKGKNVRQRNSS
Method: The inhibitory activity of indole derivatives against MCT1 was determined by applying a functional 3-bromopyruvate (3-BP) cell viability assay, as described in the literature[20],[39] with minor modifications. In short, MCT1-expressing A-549 cells[14],[15] were exposed to the MCT1 substrate 3-BP, which becomes influxed by MCT1. 3-BP is toxic, leading to decreased cell viability. Functional inhibition of MCT1 results in reduced intracellular 3-BP levels and, thus, enhanced cell viability compared to no inhibition. […] Table 1 provides the half-maximal inhibition concentration (IC50) values of compounds 17–32.
A functional 3-BP cytotoxicity assay was conducted as described in the literature[20],[39] with minor modifications. Dilution series of compounds 17–32 between 1 nM and 1 μM were prepared in DPBS (Cell Clone, Genetix Biotech Asia, New Delhi India), and 10 μL of each concentration was pipetted into a colorless flat-bottom 96-well microplate (SPL Life Sciences, Gyeonggi-do, Republic of Korea). One hundred and eighty microliters of a cell suspension (5000 cells/well) of A-549 cells was added, and subsequently, 10 μL of 3-BP was added at a concentration of 1 mM (final concentration per well: 50 μM). The plate was kept for 72 h at 37 °C under a 5% CO2-humidified atmosphere. Cell viability was determined as described before[43] by adding 20 μL of a 5 mg/mL solution of MTT to each well and further incubation for 1 h. Eventually, the supernatant was removed and 100 μL of DMSO was added to each well. The absorbance was spectrophotometrically determined at 570 nm using a SpectraMax iD3 multi-mode microplate reader (Molecular Devices, San Jose, CA) with a background correction (690 nm). The determined absorbance values were correlated to the logarithmic concentrations of compounds 17–32, and IC50 values were calculated applying nonlinear regression using GraphPad Prism (version 8.4.0., San Diego, CA).

[2] = tested on: A-549 cancer cells; assay: MTT-based cell viability assay, A-549; settings: Homo sapiens, A549, 72 h, read-out: A-549 cancer cell toxicity GI50 ± SEM
Description: MCT1-expressing cells have an extraordinary energy demand and rely on pyruvate metabolism, through either lactate conversion or pyruvate consumption. Inhibition of MCT1 blocks lactate and pyruvate influx into cancer cells, which prevents their processing in the TCA cycle. Over time, the viability of cells exposed to an MCT1 inhibitor is impaired due to pyruvate deprivation, which is compensated by upregulating glucose metabolism—leading to an overconsumption of glucose. To confirm the antiproliferative nature of the indole derivatives, we investigated the compounds toward the MCT1-expressing cell lines A-549[14],[15] and MCF-7.[16] Cancer cell viability was assessed via a 3-(4,5-dimethylthiazol-2-yl)-2,5-diphenyltetrazolium bromide (MTT) assay, as reported earlier.[43]
To determine the growth inhibitory potential of compounds 17–32, […] of each compound either at concentrations between 1 and 100 μM (A-549 or MCF-7) or at 10 and 50 μM (NIH/3T3) was pipetted into colorless flat-bottom 96-well microplates. Thereafter, 180 μL of a cell suspension (5000 cells/well) of either A-549, MCF-7, or NIH/3T3 cells was added and subsequently kept for 72 h at 37 °C under a 5% CO2-humidified atmosphere. The cell viability as well as the GI50 values were determined as described above.[43]

[3] = target: ABCB1 (P-gp) (Homo sapiens, UniProt P08183); assay: daunorubicin assay, ABCB1-expressing A2780/ADR cells; format: cell-based; settings: human, ABCB1-expressing A2780/ADR cells, probe daunorubicin (3 μM final); relative to reference inhibitor 34 = 100%; read-out: maximal inhibition (Imax), ABCB1 daunorubicin
[4] = target: ABCB1 (P-glycoprotein, P-gp) (Homo sapiens, UniProt P08183); assay: as above; format: cell-based; settings: human, ABCB1-expressing A2780/ADR cells, probe daunorubicin (3 μM final); relative to reference inhibitor 34 = 100%; read-out: maximal inhibition (Imax), ABCB1 daunorubicin
ABCB1 (P-glycoprotein, P-gp), sequence (P08183 whole entry): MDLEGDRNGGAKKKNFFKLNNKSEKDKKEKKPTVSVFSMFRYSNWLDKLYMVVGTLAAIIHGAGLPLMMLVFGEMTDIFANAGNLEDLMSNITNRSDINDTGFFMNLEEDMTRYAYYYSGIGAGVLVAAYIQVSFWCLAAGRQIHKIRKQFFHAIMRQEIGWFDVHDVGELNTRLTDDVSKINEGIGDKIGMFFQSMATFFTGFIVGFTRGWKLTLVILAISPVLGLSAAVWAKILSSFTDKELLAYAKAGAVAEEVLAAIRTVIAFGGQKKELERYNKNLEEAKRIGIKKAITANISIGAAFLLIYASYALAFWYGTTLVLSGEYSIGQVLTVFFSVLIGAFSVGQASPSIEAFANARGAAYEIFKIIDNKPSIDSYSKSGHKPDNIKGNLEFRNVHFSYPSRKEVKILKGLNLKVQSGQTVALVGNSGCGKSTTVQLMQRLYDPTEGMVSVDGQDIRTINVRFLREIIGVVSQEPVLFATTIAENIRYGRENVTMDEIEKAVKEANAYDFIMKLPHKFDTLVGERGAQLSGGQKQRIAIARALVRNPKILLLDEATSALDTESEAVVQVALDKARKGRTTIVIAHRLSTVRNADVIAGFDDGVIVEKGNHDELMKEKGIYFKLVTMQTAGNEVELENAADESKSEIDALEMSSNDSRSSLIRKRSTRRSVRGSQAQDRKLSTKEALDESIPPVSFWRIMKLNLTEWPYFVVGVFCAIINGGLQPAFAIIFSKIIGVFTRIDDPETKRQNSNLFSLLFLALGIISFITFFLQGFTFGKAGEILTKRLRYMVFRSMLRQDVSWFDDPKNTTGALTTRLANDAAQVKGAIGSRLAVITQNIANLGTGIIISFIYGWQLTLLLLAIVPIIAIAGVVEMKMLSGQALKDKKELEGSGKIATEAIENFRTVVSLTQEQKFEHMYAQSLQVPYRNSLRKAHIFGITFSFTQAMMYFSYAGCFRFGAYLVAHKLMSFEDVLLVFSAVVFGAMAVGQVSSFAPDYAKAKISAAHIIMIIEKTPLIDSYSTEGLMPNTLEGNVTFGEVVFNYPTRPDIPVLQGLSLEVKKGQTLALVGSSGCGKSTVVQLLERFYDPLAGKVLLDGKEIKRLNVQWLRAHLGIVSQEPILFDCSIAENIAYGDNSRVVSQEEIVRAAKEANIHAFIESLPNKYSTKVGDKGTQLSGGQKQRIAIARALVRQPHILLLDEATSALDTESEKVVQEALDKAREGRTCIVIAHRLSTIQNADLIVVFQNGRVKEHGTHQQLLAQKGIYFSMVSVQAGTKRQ

ABCB1 (P-gp), sequence (P08183 whole entry): as above

Row | Structure (SMILES) | IC50 [1] | GI50 [2] | inhibition at 180 min [3] | inhibition at 180 min [4]
1 | COC(=O)/C(C#N)=C/c1cn(CC(=O)Nc2ccc(OC)cc2)c2ccccc12 [Compound 24, Methyl-2-cyano-3-(1-(2-((4-methoxyphenyl)amino)-2-oxoethyl)-1H-indol-3-yl) Acrylate] | 0.081 ± 0.004 µM | 20 ± 0.6 µM | 84% | 
2 | COC(=O)/C(C#N)=C/c1cn(CC(=O)Nc2ccc(C)cn2)c2ccccc12 [Compound 30, Methyl-2-cyano-3-(1-(2-((5-methylpyridin-2-yl)amino)-2-oxoethyl)-1H-indol-3-yl) Acrylate] | 0.0823 ± 0.0044 µM | 19.3 ± 0.3 µM |  | 93.3%

Source: publication PMC9841531, “Indole Derivatives as New Structural Class of Potent and Antiproliferative Inhibitors of Monocarboxylate Transporter 1 (MCT1; SLC16A1)” (Journal of Medicinal Chemistry, 2022)
